Common to all, as to assay type: cell-based
In assay [1] the test system is IL-1β. Put plainly: Whole bovine blood assay, LPS-induced IL-1β (inhibition / overstimulation). As to conditions: drug concentration giving overstimulation (OS) of LPS-induced IL-1β, top concentration 250 μM. Here is the method: (§1) Whole Blood Assay-Fresh whole bovine blood samples were collected into heparinized vacutainer tubes. Assay plates were prepared with 25 μL of drug diluted in PBS at varying concentration in 96 round bottom wells, then 225 μL of blood was added and plates incubated at 37° C. for 4 hours. Cells were stimulated with LPS (or PBS for controls) by adding 25 μL to the plates at a final concentration of 1 μg/mL and incubated at 37° C. for 18 hours. To collect plasma, plates were centrifuged at 2,000×g for 10 minutes and 100 μL of supernatant was transferred to a 96 well polypropylene plate that was sealed and stored at −80° C. Samples were assayed for cytokines using the Meso Scale Discovery (MSD) platform (described below). This same MSD platform was used to assess cytokines in the plasma collected directly from drug treated animals.
(§2) Cytokine Detection—An MSD U-Plex cytokine assay was developed following the MSD U-Plex protocol guide and included biotinylated capture antibodies against: bovine Interleukin (IL)-1β (Biorad), bovine IL-6 (R&D Systems) and bovine tumor necrosis factor (TNF)-α (R&D Systems). The anti-IL-1β antibody was biotinylated using EZ-Link Sulfo-NHS-Biotin (Thermo Scientific) at a challenge ratio of 1:20 according to manufacturer instructions. Assay calibrators (Kingfisher) were diluted to a concentration of […] in control lithium heparin plasma, followed by 4-fold serial dilutions into plasma. The detection antibodies were sulfo-tagged following the MSD quick guide conjugation protocol using a challenge ratio of 1:20. Antibodies were used at the following concentrations: anti-IL-1β at 1 μg/mL, anti-IL-6 at 1 μg/mL and anti-TNF-α at 0.5 μg/mL. Cytokines were quantified according to manufacturer's instructions using a chemiluminescent readout. In brief, 0.5 mL of all biotinylated antibodies were diluted to 10 μg/mL with Diluent 100 and paired to their respective linkers by adding 750 μL of supplied Linker solution and incubated for 30 minutes followed by addition of Stop solution for another 30 minutes. The linked antibodies were then diluted 10-fold into Stop solution. Plates were coated by adding 50 μL of antibody solutions per well and incubated covered and shaking for 1 hour at room temperature. Plates were washed three times with PBS/Tween20 prior to samples or standards being added at 30 μL per well and incubated as above. Plates were washed three times before detection antibodies were added along with 2% goat and rabbit serum to block and incubated same as above. Plates were washed a further three times before addition of 150 μL 2X Read buffer and read immediately on the SI6000 instrument (MSD). For soluble protein levels, a BCA protein kit (Thermofisher) was used. The cytokine concentrations (pg/mL) were normalized to the total protein levels for each sample. [Bassel et. al., BMC Veterinary Research (2020) 16:168]
(§3) Therefore, a fresh whole bovine blood assay was developed with LPS as a stimulant (TLR-4 agonist) and with IL-1β and TNF-α as the read-out. Compounds of the invention were evaluated against a positive control for their ability to inhibit LPS-induced IL-1β and TNF-α as an overall evaluation of relative potency and modulation of target pathways.
For M9, the top dose of 500 μM was not high enough to determine an overstimulation of IL-1 B which was recorded as not applicable (n/a). The enhanced response indicates increased concentration of IL-1β cytokine at the drug concentration indicated. This is generally observed when compounds are out of range (high concentration) and stimulate a cellular toxicity signal. Further data supporting this hypothesis includes murine studies using a P. multocida infection in mice.
TNFα is a cell signaling protein, cytokine, that plays a key role in both acute and chronic inflammation. […]

Assay [2] deals with TNF-α. Put plainly: Whole bovine blood assay, LPS-induced TNF-α. As to conditions: fresh whole bovine blood, LPS stimulant; top drug concentration 250 μM. As for the experimental part:
as §1
as §2, with “The anti-IL-1β antibody was biotinylated using EZ-Link Sulfo-NHS-Biotin (Thermo Scientific) at a challenge ratio of 1:20 according to manufacturer instructions.” left out, “The detection antibodies were sulfo-tagged following the MSD quick guide conjugation protocol using a challenge ratio of 1:20.” left out
as §3
TNFα is a cell signaling protein, cytokine, that plays a key role in both acute and chronic inflammation. In the bovine whole blood in vitro screening assay the inhibition of TNFα as induced by stimulation by lipopolysaccharide (LPS) and as measured by half the maximal inhibitory concentration (IC50) is recognized as the primary biomarker of immunomodulation potency upon pretreatment with the compounds of the invention. IL-1 B is a mediator of the inflammation response and is involved in a number of cellular activities including proliferation, differentiation and apoptosis. IL-1ß is also released upon cellular stress or cytotoxicity or upon TLR stimulation. […] In order to estimate a therapeutic index from the in vitro assay a differential between the TNFα IC50 (immunomodulation potency) versus the perceived cellular toxicity concentration (IL-1β release or overstimulation) was utilized.

Assay [3] relates to IL-6. Put plainly: Whole bovine blood assay, LPS-induced IL-6. As to conditions: fresh whole bovine blood, LPS stimulant; top drug concentration 250 μM.

Bounds are passed on as bounds.

For `CCCNC[C@]1(O)[C@H](C)O[C@@H](O[C@H]2[C@H](C)[C@@H](O[C@@H]3O[C@H](C)C[C@H](N(C)S(=O)(=O)c4c(C)noc4C)[C@H]3O)[C@](C)(O)C[C@@H](C)CN[C@H](C)[C@@H](O)[C@](C)(O)[C@@H](CC)OC(=O)[C@@H]2C)C[C@@]1(C)OC` [Example B-4], the minimal effective concentration in assay [1] came to 40 µM. Still for that read-out and setting: with `CCCNC[C@]1(O)[C@H](C)O[C@@H](O[C@H]2[C@H](C)[C@@H](O[C@@H]3O[C@H](C)C[C@H](N(C)S(=O)(=O)c4ccc(S(C)(=O)=O)cc4)[C@H]3O)[C@](C)(O)C[C@@H](C)CN[C@H](C)[C@@H](O)[C@](C)(O)[C@@H](CC)OC(=O)[C@@H]2C)C[C@@]1(C)OC` [Example B-11] the figure was over 250 µM; with `CCCNC[C@]1(O)[C@H](C)O[C@@H](O[C@H]2[C@H](C)[C@@H](O[C@@H]3O[C@H](C)C[C@H](N(C)S(=O)(=O)c4ccc(S(N)(=O)=O)cc4)[C@H]3O)[C@](C)(O)C[C@@H](C)CN[C@H](C)[C@@H](O)[C@](C)(O)[C@@H](CC)OC(=O)[C@@H]2C)C[C@@]1(C)OC` [Example B-15], over 250 µM; with `CCCNC[C@]1(O)[C@H](C)O[C@@H](O[C@H]2[C@H](C)[C@@H](O[C@@H]3O[C@H](C)C[C@H](N(C)S(=O)(=O)c4ccc(C#N)nc4)[C@H]3O)[C@](C)(O)C[C@@H](C)CN[C@H](C)[C@@H](O)[C@](C)(O)[C@@H](CC)OC(=O)[C@@H]2C)C[C@@]1(C)OC` [Example B-17], 100 µM. On to `CCCNC[C@]1(O)[C@H](C)O[C@@H](O[C@H]2[C@H](C)[C@@H](O[C@@H]3O[C@H](C)C[C@H](N(C)S(=O)(=O)N(C)c4ccc(C#N)cc4)[C@H]3O)[C@](C)(O)C[C@@H](C)CN[C@H](C)[C@@H](O)[C@](C)(O)[C@@H](CC)OC(=O)[C@@H]2C)C[C@@]1(C)OC` [Example B-62], for which the minimal effective concentration in assay [1] is 3 µM. Regarding `CC[C@H]1OC(=O)[C@H](C)[C@@H](O[C@H]2C[C@@](C)(OC)[C@](O)(CN3CCCCC3)[C@H](C)O2)[C@H](C)[C@@H](O[C@@H]2O[C@H](C)C[C@H](N(C)S(=O)(=O)c3ccc(F)cc3)[C@H]2O)[C@](C)(O)C[C@@H](C)CN[C@H](C)[C@@H](O)[C@]1(C)O` [Example C-19], the IC50 in assay [2] amounted to 5 µM; in assay [3], 7 µM. On to `CC[C@H]1OC(=O)[C@H](C)[C@@H](O[C@H]2C[C@@](C)(OC)[C@](O)(CN3CCCCC3)[C@H](C)O2)[C@H](C)[C@@H](O[C@@H]2O[C@H](C)C[C@H](N(C)S(=O)(=O)Nc3ccc(C(C)(C)C)cc3)[C@H]2O)[C@](C)(O)C[C@@H](C)CN[C@H](C)[C@@H](O)[C@]1(C)O` [Example C-22], for which the figures for the concentration for half-maximal inhibition (IC50) in assay [2] and in assay [3] were 4 µM and 6 µM, respectively. For `CC[C@H]1OC(=O)[C@H](C)[C@@H](O[C@H]2C[C@@](C)(OC)[C@](O)(CN3CCCCC3)[C@H](C)O2)[C@H](C)[C@@H](O[C@@H]2O[C@H](C)C[C@H](N(C)S(=O)(=O)Nc3cccc(Cl)c3)[C@H]2O)[C@](C)(O)C[C@@H](C)CN[C@H](C)[C@@H](O)[C@]1(C)O` [Example C-23], in that order: 9 µM and 10 µM. As for `CC[C@H]1OC(=O)[C@H](C)[C@@H](O[C@H]2C[C@@](C)(OC)[C@](O)(CN3CCCCC3)[C@H](C)O2)[C@H](C)[C@@H](O[C@@H]2O[C@H](C)C[C@H](N(C)S(=O)(=O)Nc3ccc(Cl)c(Cl)c3)[C@H]2O)[C@](C)(O)C[C@@H](C)CN[C@H](C)[C@@H](O)[C@]1(C)O` [Example C-28], the concentration for half-maximal inhibition (IC50) in assay [2] and in assay [3] was 25 µM each time. As to `CC[C@H]1OC(=O)[C@H](C)[C@@H](O[C@H]2C[C@@](C)(OC)[C@](O)(CN3CCCCC3)[C@H](C)O2)[C@H](C)[C@@H](O[C@@H]2O[C@H](C)C[C@H](N(C)S(=O)(=O)Nc3ccc(C)cc3)[C@H]2O)[C@](C)(O)C[C@@H](C)CN[C@H](C)[C@@H](O)[C@]1(C)O` [Example C-32], the IC50 stood at 5 µM in assay [2] and 8 µM in assay [3].

For the molecule `CC[C@H]1OC(=O)[C@H](C)[C@@H](O[C@H]2C[C@@](C)(OC)[C@](O)(CN3CCCCC3)[C@H](C)O2)[C@H](C)[C@@H](O[C@@H]2O[C@H](C)C[C@H](N(C)S(=O)(=O)Nc3ccc(C)c(C)c3)[C@H]2O)[C@](C)(O)C[C@@H](C)CN[C@H](C)[C@@H](O)[C@]1(C)O` [Example C-33], the 50% inhibitory concentration (IC50) in assay [2] and in assay [3] was 7 µM in each case. Regarding `CC[C@H]1OC(=O)[C@H](C)[C@@H](O[C@H]2C[C@@](C)(OC)[C@](O)(CN3CCCCC3)[C@H](C)O2)[C@H](C)[C@@H](O[C@@H]2O[C@H](C)C[C@H](N(C)S(=O)(=O)Nc3ccc(C(F)(F)F)cc3)[C@H]2O)[C@](C)(O)C[C@@H](C)CN(CC)[C@H](C)[C@@H](O)[C@]1(C)O` [Example C-36], the IC50 amounted to 6 µM in assay [2] and 9 µM in assay [3].

In the case of `CCCN([C@H]1C[C@@H](C)O[C@@H](O[C@@H]2[C@@H](C)[C@H](O[C@H]3C[C@@](C)(OC)[C@](O)(CN4CCCCC4)[C@H](C)O3)[C@@H](C)C(=O)O[C@H](CC)[C@@](C)(O)[C@H](O)[C@@H](C)NC[C@H](C)C[C@@]2(C)O)[C@@H]1O)S(=O)(=O)c1ccc(Cl)cc1` [Example C-40], the IC50 in assay [2] was 5 µM; in assay [3], 4 µM. With `CC[C@H]1OC(=O)[C@H](C)[C@@H](O[C@H]2C[C@@](C)(OC)[C@](O)(CN3CCCCC3)[C@H](C)O2)[C@H](C)[C@@H](O[C@@H]2O[C@H](C)C[C@H](N(CC(C)C)S(=O)(=O)c3ccc(Cl)cc3)[C@H]2O)[C@](C)(O)C[C@@H](C)CN[C@H](C)[C@@H](O)[C@]1(C)O` [Example C-42], the half-inhibitory concentration (IC50) in assay [2] and in assay [3] was 6 µM throughout. Turning to `CC[C@H]1OC(=O)[C@H](C)[C@@H](O[C@H]2C[C@@](C)(OC)[C@](O)(CN3CCCCC3)[C@H](C)O2)[C@H](C)[C@@H](O[C@@H]2O[C@H](C)C[C@H](N(C)S(=O)(=O)c3nccn3C)[C@H]2Oc2ccc(F)cc2)[C@](C)(O)C[C@@H](C)CN[C@H](C)[C@@H](O)[C@]1(C)O` [Example C-56], the IC50 in assay [2] came to 5 µM; in assay [3], 4 µM.

As usually defined, the minimal effective concentration is the smallest amount tested that counted as effective. Read a high minimal effective concentration as a need for much substance. The term IC50 denotes the midpoint of a concentration-inhibition curve.
